According to PubChem BioAssay AID1745844 (Carcinogenic Potency Database (CPDB), 2022):
Calls of active or inactive are those of the source. How the calls were made is not given here.

Tested on: rodent lifetime carcinogenesis bioassay, tumor incidence TD50
Experiment: chronic cancer bioassays in animals – CPDB, compiled studies (AID 1745844)
[1] = mouse, strain B6AKF1, females, oral dosing, site: lung, lesion: adenoma, dosed 76 weeks, study length 76 weeks
[2] = mouse, strain B6AKF1, males, oral dosing, site: any site (literature study), lesion: several types, types named in the paper, dosed 76 weeks, study length 76 weeks
[3] = mouse, strain B6AKF1, males, oral dosing, site: lung, lesion: adenoma, dosed 76 weeks, study length 76 weeks
[4] = mouse, strain B6C3F1, males, oral dosing, site: any site (literature study), lesion: several types, types named in the paper, dosed 76 weeks, study length 76 weeks
[5] = mouse, strain B6C3F1, males, oral dosing, site: liver, lesion: hepatoma, dosed 76 weeks, study length 76 weeks
[6] = mouse, strain B6C3F1, males, oral dosing, site: lung, lesion: adenoma, dosed 76 weeks, study length 76 weeks
[7] = mouse, strain B6AKF1, females, oral dosing, site: any site (literature study), lesion: several types, types named in the paper, dosed 76 weeks, study length 76 weeks
[8] = mouse, strain B6AKF1, females, oral dosing, site: liver, lesion: hepatoma, dosed 76 weeks, study length 76 weeks
[9] = mouse, strain B6AKF1, males, oral dosing, site: liver, lesion: hepatoma, dosed 76 weeks, study length 76 weeks
[10] = mouse, strain B6C3F1, females, oral dosing, site: any site (literature study), lesion: several types, types named in the paper, dosed 76 weeks, study length 76 weeks
[11] = mouse, strain B6C3F1, females, oral dosing, site: liver, lesion: hepatoma, dosed 76 weeks, study length 76 weeks
[12] = mouse, strain B6C3F1, females, oral dosing, site: lung, lesion: adenoma, dosed 76 weeks, study length 76 weeks
[13] = mouse, strain B6C3F1, males, oral dosing, site: lung, lesion: several types, types named in the paper, dosed 76 weeks, study length 76 weeks

With `CCN(CC)C(=S)S` the TD50 [1] was 607 mg/kg/day, the TD50 [2] was 403 mg/kg/day and the TD50 [3] was 155 mg/kg/day. The carcinogen call (mouse, strain B6C3F1, females, in feed, site: any site (literature study), lesion: several types, types named in the paper, dosed 108 weeks, study length 108 weeks) was “negative (inactive)”, the TD50 (mouse, strain B6C3F1, females, in feed, site: liver, lesion: hepatocellular adenoma + hepatocellular carcinoma + neoplastic nodule, dosed 108 weeks, study length 108 weeks) was 27000 mg/kg/day and the TD50 (mouse, strain B6C3F1, females, in feed, site: lung, lesion: alveolar/bronchiolar adenoma + alveolar/bronchiolar carcinoma, dosed 108 weeks, study length 108 weeks) was 4760 mg/kg/day. The carcinogen call (mouse, strain B6C3F1, males, in feed, site: any site (literature study), lesion: several types, types named in the paper, dosed 108 weeks, study length 108 weeks) was “negative (inactive)”, the TD50 (mouse, strain B6C3F1, males, in feed, site: lung, lesion: alveolar/bronchiolar adenoma + alveolar/bronchiolar carcinoma, dosed 108 weeks, study length 108 weeks) was 10300 mg/kg/day and the TD50 [4] was 71.4 mg/kg/day. The TD50 [5] was 68.7 mg/kg/day, the TD50 [6] was 468 mg/kg/day and the carcinogen call (rat, strain Fischer 344, females, in feed, site: any site (literature study), lesion: several types, types named in the paper, dosed 104 weeks, study length 104 weeks) was “negative (inactive)”. For the same compound, the carcinogen call (rat, strain Fischer 344, males, in feed, site: any site (literature study), lesion: several types, types named in the paper, dosed 104 weeks, study length 104 weeks) was “negative (inactive)”.
For `S=C([S-])NCCNC(=S)[S-].[Zn+2]`, the TD50 [7] was 1150 mg/kg/day (inactive), the carcinogen call [8] was “negative (inactive)” and the TD50 [1] was 1150 mg/kg/day (inactive). For the same compound, the TD50 [2] was 715 mg/kg/day (inactive), the TD50 [9] was 903 mg/kg/day (inactive) and the carcinogen call [3] was “negative (inactive)”. The TD50 [10] was 1150 mg/kg/day (inactive), the carcinogen call [11] was “negative (inactive)” and the TD50 [12] was 1150 mg/kg/day (inactive). The TD50 [4] was 189 mg/kg/day (inactive), the TD50 [5] was 244 mg/kg/day (inactive) and the carcinogen call [13] was “negative (inactive)”. For the same compound, the carcinogen call (mouse, strain CFLP, females, in feed, site: any site (literature study), lesion: several types, types named in the paper, dosed 92 weeks, study length 94 weeks) was “negative (inactive)”, the TD50 (mouse, strain CFLP, females, in feed, site: liver, lesion: hepatocellular adenoma, dosed 92 weeks, study length 94 weeks) was 1730 mg/kg/day (inactive) and the TD50 (mouse, strain CFLP, females, in feed, site: liver, lesion: hepatocellular carcinoma, dosed 92 weeks, study length 94 weeks) was 12600 mg/kg/day (inactive). The TD50 (mouse, strain CFLP, females, in feed, site: lung, lesion: adenocarcinoma, dosed 92 weeks, study length 94 weeks) was 6490 mg/kg/day (inactive), the carcinogen call (mouse, strain CFLP, females, in feed, site: lung, lesion: adenoma, dosed 92 weeks, study length 94 weeks) was “negative (inactive)” and the carcinogen call (mouse, strain CFLP, males, in feed, site: any site (literature study), lesion: several types, types named in the paper, dosed 96 weeks, study length 96 weeks) was “negative (inactive)”. The TD50 (mouse, strain CFLP, males, in feed, site: liver, lesion: hepatocellular adenoma, dosed 96 weeks, study length 96 weeks) was 420 mg/kg/day (inactive), the TD50 (mouse, strain CFLP, males, in feed, site: liver, lesion: hepatocellular carcinoma, dosed 96 weeks, study length 96 weeks) was 3700 mg/kg/day (inactive) and the carcinogen call (mouse, strain CFLP, males, in feed, site: lung, lesion: adenocarcinoma, dosed 96 weeks, study length 96 weeks) was “negative (inactive)”. The TD50 (mouse, strain CFLP, males, in feed, site: lung, lesion: adenoma, dosed 96 weeks, study length 96 weeks) was 932 mg/kg/day (inactive), the carcinogen call (rat, strain Charles River CD (Sprague-Dawley), females, in feed, site: liver, lesion: hepatocellular adenoma, dosed 112 weeks, study length 112 weeks) was “negative (inactive)” and the TD50 (rat, strain Charles River CD (Sprague-Dawley), females, in feed, site: liver, lesion: hepatocellular carcinoma, dosed 112 weeks, study length 112 weeks) was 1190 mg/kg/day (inactive). For the same compound, the TD50 (rat, strain Charles River CD (Sprague-Dawley), females, in feed, site: pituitary gland, lesion: adenoma, dosed 112 weeks, study length 112 weeks) was 27.9 mg/kg/day (inactive), the carcinogen call (rat, strain Charles River CD (Sprague-Dawley), males, in feed, site: liver, lesion: hepatocellular adenoma, dosed 119 weeks, study length 119 weeks) was “negative (inactive)” and the TD50 (rat, strain Charles River CD (Sprague-Dawley), males, in feed, site: liver, lesion: hepatocellular carcinoma, dosed 119 weeks, study length 119 weeks) was 1080 mg/kg/day (inactive). For the same compound, the carcinogen call (rat, strain Charles River CD (Sprague-Dawley), males, in feed, site: pituitary gland, lesion: adenoma, dosed 119 weeks, study length 119 weeks) was “negative (inactive)” and the TD50 (rat, strain Mongrel, both sexes, by gavage, site: any site (literature study), lesion: several types, types named in the paper, dosed 95 weeks, study length 104 weeks) was 255 mg/kg/day.
For `CCCCN(CCCC)C(=S)[S-].CCCCN(CCCC)C(=S)[S-].[Ni+2]`, the TD50 [7] was 0.185 mg/kg/day (inactive), the carcinogen call [8] was “negative (inactive)” and the TD50 [1] was 0.0869 mg/kg/day (inactive). The carcinogen call [2] was “negative (inactive)”, the carcinogen call [9] was “negative (inactive)” and the TD50 [3] was 0.153 mg/kg/day (inactive). The TD50 [10] was 0.174 mg/kg/day (inactive), the carcinogen call [11] was “negative (inactive)” and the TD50 [12] was 0.174 mg/kg/day (inactive). For the same compound, the TD50 [4] was 0.0283 mg/kg/day (inactive), the TD50 [5] was 0.0509 mg/kg/day (inactive) and the TD50 [6] was 0.163 mg/kg/day (inactive).
`Cc1ccc(C)c(N)c1` was tested, and the TD50 (mouse, strain CD-1 HaM/ICR, females, in feed, site: any site (literature study), lesion: several types, types named in the paper, dosed 68 weeks, study length 94 weeks) was 475 mg/kg/day, the TD50 (mouse, strain CD-1 HaM/ICR, females, in feed, site: liver, lesion: hepatoma, dosed 68 weeks, study length 94 weeks) was 552 mg/kg/day and the TD50 (mouse, strain CD-1 HaM/ICR, females, in feed, site: liver, lesion: several types, types named in the paper, dosed 68 weeks, study length 94 weeks) was 552 mg/kg/day. For the same compound, the TD50 (mouse, strain CD-1 HaM/ICR, females, in feed, site: lung, lesion: several types, types named in the paper, dosed 68 weeks, study length 94 weeks) was 1290 mg/kg/day (inactive), the TD50 (mouse, strain CD-1 HaM/ICR, males, in feed, site: all sites, lesion: all vascular tumors, dosed 68 weeks, study length 94 weeks) was 723 mg/kg/day and the TD50 (mouse, strain CD-1 HaM/ICR, males, in feed, site: any site (literature study), lesion: several types, types named in the paper, dosed 68 weeks, study length 94 weeks) was 321 mg/kg/day. The TD50 (mouse, strain CD-1 HaM/ICR, males, in feed, site: liver, lesion: several types, types named in the paper, dosed 68 weeks, study length 94 weeks) was 805 mg/kg/day, the TD50 (mouse, strain CD-1 HaM/ICR, males, in feed, site: lung, lesion: several types, types named in the paper, dosed 68 weeks, study length 94 weeks) was 765 mg/kg/day (inactive) and the TD50 (rat, strain Charles River CD (Sprague-Dawley), males, in feed, site: any site (literature study), lesion: several types, types named in the paper, dosed 77 weeks, study length 103 weeks) was 67.2 mg/kg/day. The TD50 (rat, strain Charles River CD (Sprague-Dawley), males, in feed, site: liver, lesion: several types, types named in the paper, dosed 77 weeks, study length 103 weeks) was 3260 mg/kg/day (inactive) and the TD50 (rat, strain Charles River CD (Sprague-Dawley), males, in feed, site: subcutaneous tissue, lesion: several types, types named in the paper, dosed 77 weeks, study length 103 weeks) was 152 mg/kg/day.
In the case of `CC(C)CCCCCOC(=O)COc1ccc(Cl)cc1Cl`, the carcinogen call [7] is reported as “negative (inactive)”, the carcinogen call [8] is reported as “negative (inactive)” and the carcinogen call [1] is reported as “negative (inactive)”. The carcinogen call [2] was “negative (inactive)”, the carcinogen call [9] was “negative (inactive)” and the carcinogen call (mouse, strain B6AKF1, males, oral dosing, site: lung, lesion: several types, types named in the paper, dosed 76 weeks, study length 76 weeks) was “negative (inactive)”. For the same compound, the TD50 [10] was 24.6 mg/kg/day (inactive), the carcinogen call [11] was “negative (inactive)” and the TD50 [12] was 34 mg/kg/day (inactive). The TD50 [4] was 17.7 mg/kg/day (inactive), the TD50 [5] was 31.7 mg/kg/day (inactive) and the carcinogen call [13] was “negative (inactive)”.
For `CC(C)N(C(=O)SCC(Cl)=CCl)C(C)C`, the TD50 (mouse, strain B6AKF1, females, oral dosing, site: any site (literature study), lesion: several types, types named in the paper, dosed 85 weeks, study length 85 weeks) was 1990 mg/kg/day, the TD50 (mouse, strain B6AKF1, females, oral dosing, site: liver, lesion: hepatoma, dosed 85 weeks, study length 85 weeks) was 516 mg/kg/day and the TD50 (mouse, strain B6AKF1, females, oral dosing, site: lung, lesion: adenoma, dosed 85 weeks, study length 85 weeks) was 4260 mg/kg/day. The TD50 (mouse, strain B6AKF1, males, oral dosing, site: any site (literature study), lesion: several types, types named in the paper, dosed 84 weeks, study length 84 weeks) was 35.4 mg/kg/day, the TD50 (mouse, strain B6AKF1, males, oral dosing, site: liver, lesion: hepatoma, dosed 84 weeks, study length 84 weeks) was 43 mg/kg/day and the TD50 (mouse, strain B6AKF1, males, oral dosing, site: lung, lesion: adenoma, dosed 84 weeks, study length 84 weeks) was 243 mg/kg/day. For the same compound, the TD50 (mouse, strain B6C3F1, females, oral dosing, site: any site (literature study), lesion: several types, types named in the paper, dosed 83 weeks, study length 83 weeks) was 90.8 mg/kg/day, the TD50 (mouse, strain B6C3F1, females, oral dosing, site: liver, lesion: several types, types named in the paper, dosed 83 weeks, study length 83 weeks) was 164 mg/kg/day and the TD50 (mouse, strain B6C3F1, females, oral dosing, site: lung, lesion: adenoma, dosed 83 weeks, study length 83 weeks) was 255 mg/kg/day. The TD50 (mouse, strain B6C3F1, males, oral dosing, site: any site (literature study), lesion: several types, types named in the paper, dosed 84 weeks, study length 84 weeks) was 15.6 mg/kg/day, the TD50 (mouse, strain B6C3F1, males, oral dosing, site: liver, lesion: hepatoma, dosed 84 weeks, study length 84 weeks) was 19.4 mg/kg/day and the TD50 (mouse, strain B6C3F1, males, oral dosing, site: lung, lesion: adenoma, dosed 84 weeks, study length 84 weeks) was 113 mg/kg/day.
For `Cc1ccccc1N=O`, the TD50 (rat, strain Fischer 344, males, in feed, site: liver, lesion: hepatoma, dosed 72 weeks, study length 93 weeks) was 59.2 mg/kg/day, the TD50 (rat, strain Fischer 344, males, in feed, site: liver, lesion: several types, types named in the paper, dosed 72 weeks, study length 93 weeks) was 50.7 mg/kg/day and the TD50 (rat, strain Fischer 344, males, in feed, site: peritoneal cavity, lesion: mesothelioma, dosed 72 weeks, study length 93 weeks) was 195 mg/kg/day. For the same compound, the TD50 (rat, strain Fischer 344, males, in feed, site: peritoneal cavity, lesion: spindle-cell sarcoma, dosed 72 weeks, study length 93 weeks) was 303 mg/kg/day, the TD50 (rat, strain Fischer 344, males, in feed, site: skin, lesion: fibroma, dosed 72 weeks, study length 93 weeks) was 55.8 mg/kg/day and the TD50 (rat, strain Fischer 344, males, in feed, site: spleen, lesion: fibroma, dosed 72 weeks, study length 93 weeks) was 87 mg/kg/day. The TD50 (rat, strain Fischer 344, males, in feed, site: urinary bladder, lesion: papilloma, dosed 72 weeks, study length 93 weeks) was 78.8 mg/kg/day and the TD50 (rat, strain Fischer 344, males, in feed, site: urinary bladder, lesion: several types, types named in the paper, dosed 72 weeks, study length 93 weeks) was 71.5 mg/kg/day.
